Source: patent US20250345426A1, “METHODS FOR MAKING AND USING THERAPEUTIC CELLS” (THE REGENTS OF THE UNIVERSITY OF CALIFORNIA, priority 2022, published 2025)

Assays:
rituximab CAR-T cells = test: Antigen-independent CAR-T cell metabolic activity, rituximab CAR-T cells (data not shown); type: cell-based, human
Source text: Cell line generation and maintenance. HEK 293T and Raji cells were obtained from ATCC. Leu16 and rituximab scFv-expressing HEK293T cell lines were generated by retroviral transduction of HEK293T cells to express each scFv fused with EGFP via a 2A peptide, and EGFP+ cells were sorted by fluorescence-activated cell sorting (FACS) on a FACSAria (II) cell sorter (BD Bioscience) at the UCLA Flow Cytometry Core Facility. CD20+K562 cells were generated by transduction of K562 cells with a retroviral construct encoding full-length CD20. K562 cells with varying CD20 expression levels were generated by FACS sorting of CD20+K562 into bins of different antigen densities. CHLA-255-Luc-EGFP cells were generated by retroviral transduction of CHLA-255-Luc to express EGFP, and EGFP+ cells were enriched by FACS. HEK 293T cells were cultured in DMEM (HyClone) supplemented with 10% heat-inactivated FBS (HI-FBS; ThermoFisher). CHLA-255-Luc-EGFP cells were cultured in IMDM (ThermoFisher) with 10% HI-FBS. Primary human T cells, Raji, and K562 cells were cultured in RPMI-1640 (Lonza) with 10% HI-FBS. For CAR-T cells used in metabolomics studies, T cells were cultured in RPMI-1640 containing 2 g/L of 1,2-13C-glucose with 10% heat-inactivated dialyzed FBS (HI-dFBS).

Raji lymphoma = Raji lymphoma model in NSG mice treated with inhibitor-treated Leu16 CAR-T cells; type: in vivo; details: Raji i.v., two doses of inhibitor-treated Leu16 CAR-T cells, vs vehicle-treated
Source text: FIG. 3A-G. Pharmacological modulation of Leu16 CAR-T cells modestly dampens tonic signaling while enhancing anti-tumor efficacy. (A) Pictorial representation of the correlation between tonic signaling-modulated rituximab CAR-T cells and in vivo anti-tumor efficacy. (B) Pictorial representation of pharmacological modulation strategy aimed to either increase or decrease Leu16 CAR tonic signaling; c-MYC (MYCi975) and SREBP (betulin) inhibition increased tonic signaling whereas mTORC1 (rapamycin) inhibition decreased tonic signaling in rituximab CAR-T cells. (C) % distribution of T-cell subtypes in CAR^+ T cells after 6 days of pharmacological modulation (left) and Tn/scm enrichment (right). The bars in FIG. 3C, right graph, represent data from, EGFRt, Leu16-28z (vehicle), Leu16-28z (MYCi975), Leu16-28z (Betulin), and Leu16-28z (Rapamycin), respectively, from left to right. (D) Activation and exhaustion marker expression by CAR^+ T cells in the absence of antigen stimulation after 6 days of pharmacological modulation. […] (F) Tumor signal (in photons/sec/cm2/sr) in individual animals as quantified by bioluminescence imaging. […]
In vivo studies. […] Tumor progression/regression was monitored with an IVIS Illumina III LT Imaging System (PerkinElmer). […]

Q: What does the source list for C=C(C)[C@@H]1CC[C@]2(CO)CC[C@]3(C)[C@H](CC[C@@H]4[C@@]5(C)CC[C@H](O)C(C)(C)[C@@H]5CC[C@]43C)[C@@H]12 [betulin, Betulin]?
A: antigen-independent CAR-T cell metabolic activity (rituximab CAR-T cells): increases; in vivo functionality: tumor control and survival (Raji lymphoma): prolonged tumor control and survival
